From paper PMC10096947 (2023)

Tested on: DOX aptamer (DNA, aptamer) ACCATCTGTGTAAGGGGTAAGGGGTGGT
Test: electrochemical aptasensor, SWV, Langmuir isotherm fit
Conditions: PBS 0.1 M (Na+/K+ concentrations not given), PBS pH 7.4, room temperature, 20 min incubation, immobilised aptamer

apparent dissociation constant: 2.55 µM
SMILES: COc1cccc2c1C(=O)c1c(O)c3c(c(O)c1C2=O)C[C@@](O)(C(=O)CO)C[C@@H]3O[C@H]1C[C@H](N)[C@H](O)[C@H](C)O1
